Test results: patent US4015974A, “Amido phosphorothiolates” (priority 1972, dated 1977)

Tests used:
Format in all cases: in vivo
[1] = test system: barnyard grass (Echinochloa crus-galli); experiment: Pre-emergence application, herbicidal effect on barnyard grass (Table 1); design: key: 0: not damaged; 5: completely killed; settings: 20 days after application, score 0-5
How it was run: (§1)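 Scores run from 0 (undamaged) to 5 (fully killed), read 20 days post-treatment. Compounds were applied as water-diluted wettable powders to soil over freshly covered seeds in ~10 cm pots, with plants kept in a greenhouse.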

[2] = test system: large crabgrass (Digitaria sanguinalis); experiment: Pre-emergence application, herbicidal effect on large crabgrass (Table 1); design: key: 0: not damaged; 5: completely killed; settings: 20 days after application, score 0-5
How it was run: as §1

radish = experiment: Pre-emergence application, herbicidal effect on radish (Table 1); design: key: 0: not damaged; 5: completely killed; settings: 20 days after application, score 0-5
How it was run: as §1

[3] = test system: redroot pigweed (Amaranthus retroflexus); experiment: Pre-emergence application, herbicidal effect on redroot pigweed (Table 1); design: key: 0: not damaged; 5: completely killed; settings: 20 days after application, score 0-5
How it was run: as §1

[4] = test system: common purslane (Portulaca oleracea); experiment: Pre-emergence application, herbicidal effect on common purslane (Table 1); design: key: 0: not damaged; 5: completely killed; settings: 20 days after application, score 0-5
How it was run: as §1

[5] = test system: common lambsquarter (Chenopodium album); experiment: Pre-emergence application, herbicidal effect on common lambsquarter (Table 1); design: key: 0: not damaged; 5: completely killed; settings: 20 days after application, score 0-5
How it was run: as §1

rice = experiment: Water application, phytotoxicity on rice (Table 2); design: key: 0: no effect; 1: very slightly affected; 2: slightly affected; 3: moderately affected; 4: considerably affected; 5: completely killed; settings: 25 days, score 0-5
How it was run: (§2)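 Scores (0–5) taken 25 days post-treatment. Wettable-powder formulations were applied into standing water over paddy soil holding 3-leaf-stage transplanted rice, sown Echinochloa and naturally emerging monochoria, false pimpernel and toothcup.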

[6] = test system: barnyard grass (Echinochloa crus-galli); experiment: Water application, herbicidal effect on barnyard grass (Table 2); design: key: 0: not damaged; 5: completely killed; settings: 25 days, score 0-5
How it was run: as §2

[7] = test system: broad-leaved weeds, e.g., monochoria, false pimpernel and toothcup; experiment: Water application, herbicidal effect on broad-leaved weeds (Table 2); design: key: 0: not damaged; 5: completely killed; settings: 25 days, score 0-5
How it was run: as §2

Row | SMILES | Herbicidal effect, barnyard grass ([1]; 10 g./a.) | Herbicidal effect, barnyard grass ([1]; 20 g./a.) | Herbicidal effect, barnyard grass ([1]; 40 g./a.) | Herbicidal effect, large crabgrass ([2]; 10 g./a.) | Herbicidal effect, large crabgrass ([2]; 20 g./a.) | Herbicidal effect, large crabgrass ([2]; 40 g./a.) | Herbicidal effect, radish (radish; 10 g./a.) | Herbicidal effect, radish (radish; 20 g./a.) | Herbicidal effect, radish (radish; 40 g./a.) | Herbicidal effect, redroot pigweed ([3]; 10 g./a.) | Herbicidal effect, redroot pigweed ([3]; 20 g./a.) | Herbicidal effect, redroot pigweed ([3]; 40 g./a.) | Herbicidal effect, common purslane ([4]; 10 g./a.) | Herbicidal effect, common purslane ([4]; 20 g./a.) | Herbicidal effect, common purslane ([4]; 40 g./a.) | Herbicidal effect, common lambsquarter ([5]; 10 g./a.) | Herbicidal effect, common lambsquarter ([5]; 20 g./a.) | Herbicidal effect, common lambsquarter ([5]; 40 g./a.) | Phytotoxicity on rice (rice; 10 g/a) | Phytotoxicity on rice (rice; 20 g/a) | further results
1 | CCCCCCSP(=O)(OCC)SCC(=O)N1CCCCC1C (stereo not drawn) [Compound 62] | 4 | 5 | 5 | 4 | 5 | 5 | 0 | 0 | 0 | 3 | 4 | 5 | 3 | 4 | 5 | 4 | 4 | 5 | 0 | 0 | Phytotoxicity on rice (rice; 40 g/a): 0; Herbicidal effects, barnyard grass ([6]; 10 g/a): 5; Herbicidal effects, barnyard grass ([6]; 20 g/a): 5; Herbicidal effects, barnyard grass ([6]; 40 g/a): 5; Herbicidal effects, broad-leaved weeds ([7]; 10 g/a): 5; Herbicidal effects, broad-leaved weeds ([7]; 20 g/a): 5; Herbicidal effects, broad-leaved weeds ([7]; 40 g/a): 5
2 | CCCOP(=O)(SCC(=O)N1CCCCC1CC)SC(C)CC (stereo not drawn) [Compound 87] | 5 | 5 | 5 | 5 | 5 | 5 | 0 | 0 | 0 | 3 | 4 | 5 | 3 | 4 | 5 | 3 | 3 | 5 | 0 | 0 | Phytotoxicity on rice (rice; 40 g/a): 0; Herbicidal effects, barnyard grass ([6]; 10 g/a): 5; Herbicidal effects, barnyard grass ([6]; 20 g/a): 5; Herbicidal effects, barnyard grass ([6]; 40 g/a): 5; Herbicidal effects, broad-leaved weeds ([7]; 10 g/a): 5; Herbicidal effects, broad-leaved weeds ([7]; 20 g/a): 5; Herbicidal effects, broad-leaved weeds ([7]; 40 g/a): 5
3 | CCCCCSP(=O)(OCC)SCC(=O)N1CCCC(C)C1 (stereo not drawn) [Compound 72] | 4 | 5 | 5 | 5 | 5 | 5 | 0 | 0 | 0 | 3 | 4 | 5 | 3 | 4 | 5 | 4 | 4 | 5 | 0 | 0 | Phytotoxicity on rice (rice; 40 g/a): 0; Herbicidal effects, barnyard grass ([6]; 10 g/a): 5; Herbicidal effects, barnyard grass ([6]; 20 g/a): 5; Herbicidal effects, barnyard grass ([6]; 40 g/a): 5; Herbicidal effects, broad-leaved weeds ([7]; 10 g/a): 5; Herbicidal effects, broad-leaved weeds ([7]; 20 g/a): 5; Herbicidal effects, broad-leaved weeds ([7]; 40 g/a): 5
4 | CCCCOP(=O)(SCC(=O)N1CCCCC1CC)SC(C)CC (stereo not drawn) [Compound 96] | 4 | 5 | 5 | 5 | 5 | 5 | 0 | 0 | 0 | 3 | 4 | 5 | 3 | 4 | 5 | 3 | 4 | 5 | 0 | 0 | Phytotoxicity on rice (rice; 40 g/a): 0; Herbicidal effects, barnyard grass ([6]; 10 g/a): 5; Herbicidal effects, barnyard grass ([6]; 20 g/a): 5; Herbicidal effects, barnyard grass ([6]; 40 g/a): 5; Herbicidal effects, broad-leaved weeds ([7]; 10 g/a): 5; Herbicidal effects, broad-leaved weeds ([7]; 20 g/a): 5; Herbicidal effects, broad-leaved weeds ([7]; 40 g/a): 5
5 | C=CCSP(=O)(OCCC)SCC(=O)N1CCCCC1C (stereo not drawn) [Compound 70] | 5 | 5 | 5 | 5 | 5 | 5 | 0 | 0 | 0 | 5 | 5 | 5 | 5 | 5 | 5 | 5 | 5 | 5 | 0 | 0 | Phytotoxicity on rice (rice; 40 g/a): 2; Herbicidal effects, barnyard grass ([6]; 10 g/a): 5; Herbicidal effects, barnyard grass ([6]; 20 g/a): 5; Herbicidal effects, barnyard grass ([6]; 40 g/a): 5; Herbicidal effects, broad-leaved weeds ([7]; 10 g/a): 5; Herbicidal effects, broad-leaved weeds ([7]; 20 g/a): 5; Herbicidal effects, broad-leaved weeds ([7]; 40 g/a): 5
